Reference: US9243001B2, “Substituted benzene compounds” (Epizyme, Inc., priority 2013, dated 2016)

Molecular target: T1, wild-type EZH2 (PRC2 enzyme) (Homo sapiens, UniProt Q15910)
T1 construct: made in house; host or cells: Spodoptera frugiperda (sf9) cells, baculovirus
Test: PRC2 enzyme assay on peptide substrates (wild-type EZH2)
Type: biochemical
Settings: wild-type PRC2 enzyme 4 nM, H3K27me0 peptide substrate, 3H-SAM Flashplate; read-out: WT EZH2 IC50
Excerpt: General Materials. S-adenosylmethionine (SAM), S-adenosylhomocyteine (SAH), bicine, KCl, Tween20, dimethylsulfoxide (DMSO) and bovine skin gelatin (BSG) were purchased from Sigma-Aldrich at the highest level of purity possible. Dithiothreitol (DTT) was purchased from EMD Millipore. ^3H-SAM was purchased from American Radiolabeled Chemicals with a specific activity of 80 Ci/mmol. 384-well streptavidin Flashplates were purchased from PerkinElmer.
Substrates. Peptides representative of human histone H3 residues 21- 44 containing either an unmodified lysine 27 (H3K27me0) or dimethylated lysine 27 (H3K27me2) are synthesized with a C-terminal G(K-biotin) linker-affinity tag motif and a C-terminal amide cap by 21st Century Biochemicals. The peptides are high-performance liquid chromatography (HPLC) purified to greater than 95% purity and confirmed by liquid chromatography mass spectrometry (LC-MS). The sequences are listed below.
Recombinant PRC2 Enzymes. Human PRC2 enzymes were purified as 4-component enzyme complexes co-expressed in Spodoptera frugiperda (sf9) cells using a baculovirus expression system. The subunits expressed were wild-type EZH2 (NM_004456) or EZH2 Y641F, N, H, S or C mutants generated from the wild-type EZH2 construct, EED (NM_003797), Suz12 (NM_015355) and RbAp48 (NM_005610). The EED subunit contained an N-terminal FLAG tag that was used to purify the entire 4-component complex from sf9 cell lysates. The purity of the complexes met or exceeded 95% as determined by SDS-PAGE and Agilent Bioanalyzer analysis. Concentrations of enzyme stock concentrations (generally 0.3-1.0 mg/mL) was determined using a Bradford assay against a bovine serum albumin (BSA) standard.
General Procedure for PRC2 Enzyme Assays on Peptide Substrates. The assays were all performed in a buffer consisting of 20 mM bicine (pH=7.6), 0.5 mM DTT, 0.005% BSG and 0.002% Tween20, prepared on the day of use. Compounds in 100% DMSO (1 μL) were spotted into polypropylene 384-well V-bottom plates (Greiner) using a Platemate 2×3 outfitted with a 384-channel pipet head (Thermo). DMSO (1 μL) was added to columns 11, 12, 23, 24, rows A -H for the maximum signal control, and SAH, a known product and inhibitor of PRC2 (1 μL) was added to columns 11,12, 23, 24, rows I -P for the minimum signal control. A cocktail (40 μL) containing the wild-type PRC2 enzyme and H3K27me0 peptide or any of the Y641 mutant enzymes and H3K27me2 peptide was added by Multidrop Combi (Thermo). The compounds were allowed to incubate with PRC2 for 30 min at 25° C., then a cocktail (10 μL) containing a mixture of non-radioactive and ^3H-SAM was added to initiate the reaction (final volume=51 μL). In all cases, the final concentrations were as follows: wild-type or mutant PRC2 enzyme was 4 nM, SAH in the minimum signal control wells was 1 mM and the DMSO concentration was 1%. The assays were stopped by the addition of non-radioactive SAM (10 μL) to a final concentration of 600 μM, which dilutes the ^3H-SAM to a level where its incorporation into the peptide substrate is no longer detectable. 50 μL of the reaction in the 384-well polypropylene plate was then transferred to a 384-well Flashplate and the biotinylated peptides were allowed to bind to the streptavidin surface for at least 1 h before being washed three times with 0.1% Tween20 in a Biotek ELx405 plate washer. The plates were then read in a PerkinElmer TopCount platereader to measure the quantity of ^3H-labeled peptide bound to the Flashplate surface, measured as disintegrations per minute (dpm) or alternatively, referred to as counts per minute (cpm).
Where dpm=disintegrations per minute, cmpd=signal in assay well, and min and max are the respective minimum and maximum signal controls.
Where top and bottom are the normally allowed to float, but may be fixed at 100 or 0 respectively in a 3-parameter fit. The Hill Coefficient normally allowed to float but may also be fixed at 1 in a 3-parameter fit. […]

T1 sequence (Q15910 1-751 isoform Q15910-2): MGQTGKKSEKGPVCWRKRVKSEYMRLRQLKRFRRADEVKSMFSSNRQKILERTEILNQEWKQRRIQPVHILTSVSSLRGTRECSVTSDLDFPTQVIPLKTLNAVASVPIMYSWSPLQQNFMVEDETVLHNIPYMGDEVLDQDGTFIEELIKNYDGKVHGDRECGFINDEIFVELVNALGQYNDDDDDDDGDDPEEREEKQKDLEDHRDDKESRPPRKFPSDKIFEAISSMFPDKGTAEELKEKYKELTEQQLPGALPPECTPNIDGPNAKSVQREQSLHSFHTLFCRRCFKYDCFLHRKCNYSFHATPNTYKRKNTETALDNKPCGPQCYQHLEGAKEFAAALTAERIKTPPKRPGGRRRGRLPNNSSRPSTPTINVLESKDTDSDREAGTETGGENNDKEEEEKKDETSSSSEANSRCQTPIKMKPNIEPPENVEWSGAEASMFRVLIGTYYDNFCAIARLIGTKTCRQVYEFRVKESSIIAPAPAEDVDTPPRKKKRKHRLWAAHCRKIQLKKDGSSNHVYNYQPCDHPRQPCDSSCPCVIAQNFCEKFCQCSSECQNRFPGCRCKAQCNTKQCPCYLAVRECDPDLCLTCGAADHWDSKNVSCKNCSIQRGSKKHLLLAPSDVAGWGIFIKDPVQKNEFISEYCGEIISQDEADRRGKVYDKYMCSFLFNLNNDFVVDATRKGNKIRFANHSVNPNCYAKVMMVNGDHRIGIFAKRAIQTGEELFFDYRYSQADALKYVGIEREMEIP
T1 sequence (O75530 whole entry partner): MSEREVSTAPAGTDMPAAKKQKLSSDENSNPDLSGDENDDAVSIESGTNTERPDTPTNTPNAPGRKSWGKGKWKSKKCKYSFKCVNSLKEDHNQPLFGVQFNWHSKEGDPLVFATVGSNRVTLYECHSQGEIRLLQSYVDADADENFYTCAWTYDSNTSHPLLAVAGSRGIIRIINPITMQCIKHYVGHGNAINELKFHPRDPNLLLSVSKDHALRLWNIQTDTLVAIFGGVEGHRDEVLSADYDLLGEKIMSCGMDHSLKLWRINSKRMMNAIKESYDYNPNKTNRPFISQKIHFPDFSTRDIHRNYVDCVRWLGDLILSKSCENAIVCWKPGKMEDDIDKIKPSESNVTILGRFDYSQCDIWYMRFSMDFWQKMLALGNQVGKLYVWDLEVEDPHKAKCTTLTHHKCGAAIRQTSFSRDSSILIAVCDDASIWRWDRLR
T1 sequence (Q15022 whole entry partner): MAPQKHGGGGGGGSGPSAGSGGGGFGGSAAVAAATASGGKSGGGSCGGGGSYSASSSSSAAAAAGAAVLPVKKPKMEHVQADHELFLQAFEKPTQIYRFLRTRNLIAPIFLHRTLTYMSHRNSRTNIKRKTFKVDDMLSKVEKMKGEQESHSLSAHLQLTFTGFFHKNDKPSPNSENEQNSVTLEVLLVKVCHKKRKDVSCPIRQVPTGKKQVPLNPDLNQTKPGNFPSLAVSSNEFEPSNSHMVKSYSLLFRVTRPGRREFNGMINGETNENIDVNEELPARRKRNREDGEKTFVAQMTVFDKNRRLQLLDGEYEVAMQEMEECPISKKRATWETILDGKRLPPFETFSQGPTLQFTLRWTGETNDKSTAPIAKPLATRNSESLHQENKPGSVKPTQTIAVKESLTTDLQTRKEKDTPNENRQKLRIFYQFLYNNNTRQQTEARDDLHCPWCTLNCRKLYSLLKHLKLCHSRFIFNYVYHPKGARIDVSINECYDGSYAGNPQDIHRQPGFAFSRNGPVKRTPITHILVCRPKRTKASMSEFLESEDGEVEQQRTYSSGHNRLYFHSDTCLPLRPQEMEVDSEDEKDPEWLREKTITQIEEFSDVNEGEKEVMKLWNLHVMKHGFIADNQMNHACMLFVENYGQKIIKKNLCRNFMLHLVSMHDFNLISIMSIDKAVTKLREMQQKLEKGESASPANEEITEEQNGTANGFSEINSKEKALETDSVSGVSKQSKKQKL
T1 sequence (Q09028 whole entry partner): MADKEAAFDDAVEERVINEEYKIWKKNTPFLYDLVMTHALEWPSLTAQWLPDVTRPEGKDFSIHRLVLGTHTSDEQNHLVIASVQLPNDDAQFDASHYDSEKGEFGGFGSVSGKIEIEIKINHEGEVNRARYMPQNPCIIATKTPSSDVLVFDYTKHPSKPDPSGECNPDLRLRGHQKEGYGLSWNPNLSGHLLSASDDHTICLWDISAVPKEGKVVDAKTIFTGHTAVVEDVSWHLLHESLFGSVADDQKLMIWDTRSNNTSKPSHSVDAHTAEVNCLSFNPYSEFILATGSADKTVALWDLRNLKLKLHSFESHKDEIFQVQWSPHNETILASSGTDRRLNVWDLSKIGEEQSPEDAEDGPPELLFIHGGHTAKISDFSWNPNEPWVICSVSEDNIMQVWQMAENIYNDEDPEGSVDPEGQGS

Row | SMILES | IC50 [µM]
1 | CCN(c1cc(Cl)cc(C(=O)NCc2nccs2)c1C)C1CCOCC1 [Compound 24, 5-chloro-3-(ethyl(tetrahydro-2H-pyran-4-yl)amino)-2-methyl-N-(thiazol-2-ylmethyl)benzamide] | > 50
2 | CCN(c1cc(Cl)cc(C(=O)NCc2cn(C)cn2)c1C)C1CCOCC1 [Compound 25, 5-chloro-3-(ethyl(tetrahydro-2H-pyran-4-yl)amino)-2-methyl-N-((1-methyl-1H-imidazol-4-yl)methyl)benzamide] | 7.82
3 | CCN(c1cc(Cl)cc(C(=O)NCc2cn3ccsc3n2)c1C)C1CCOCC1 [Compound 26, 5-chloro-3-(ethyl(tetrahydro-2H-pyran-4-yl)amino)-N-(imidazo[2,1-b]thiazol-6-ylmethyl)-2-methylbenzamide] | > 50
4 | CCN(c1cc(Cl)cc(C(=O)NCc2cnn(C)c2C)c1C)C1CCOCC1 [Compound 27, 5-chloro-N-((1,5-dimethyl-1H-pyrazol-4-yl)methyl)-3-(ethyl(tetrahydro-2H-pyran-4-yl)amino)-2-methylbenzamide] | > 50
5 | CCN(c1cc(Cl)cc(C(=O)NCc2ccn(C)n2)c1C)C1CCOCC1 [Compound 28, 5-chloro-3-(ethyl(tetrahydro-2H-pyran-4-yl)amino)-2-methyl-N-((1-methyl-1H-pyrazol-3-yl)methyl)benzamide] | 14.8
6 | CCN(c1cc(Cl)cc(C(=O)NCc2cc(C)on2)c1C)C1CCOCC1 [Compound 29, 5-chloro-3-(ethyl(tetrahydro-2H-pyran-4-yl)amino)-2-methyl-N-((5-methylisoxazol-3-yl)methyl)benzamide] | > 50
7 | CCN(c1cc(Cl)cc(C(=O)NCc2c[nH]cn2)c1C)C1CCOCC1 [Compound 30, N-((1H-imidazol-4-yl)methyl)-5-chloro-3-(ethyl(tetrahydro-2H-pyran-4-yl)amino)-2-methylbenzamide] | 0.32
8 | CCN(c1cc(Cl)cc(C(=O)NCc2cc(C)nn2C)c1C)C1CCOCC1 [Compound 31, 5-chloro-N-((1,3-dimethyl-1H-pyrazol-5-yl)methyl)-3-(ethyl(tetrahydro-2H-pyran-4-yl)amino)-2-methylbenzamide] | > 50
